In US20220364989A1, “METHOD FOR MEASURING PHOTOTOXICITY OR PHOTOALLERGY AND REAGENT FOR USE THEREIN” (FUJIFILM Corporation, priority 2018, published 2022):
Like-named read-outs stand apart in the source and are kept apart here.

Key:
[1] = cited from earlier work
[2] = Average score of NAC and NAL depletion and phototoxicity or photoallergy determination, fluorescence detection; details: single compound
Protocol: (§1) After being spun down in a centrifuge, the reaction solutions are irradiated with light at 2,000 μW/cm^2 using an SXL-2500V2 ultraviolet irradiation apparatus (manufactured by SERIC., Ltd.) for 1 hour, followed by incubation at 25° C. in a light-shielded state for 23 hours. As controls without light irradiation, reaction solutions are prepared, followed by incubation at 25° C. in a light-shielded state for 24 hours.
(§2) As the conditions without light irradiation, the 1 mmol/L test substance solutions were each reacted with the nucleophilic reagents, namely, NAC and NAL, at 25° C. for 24 hours. As the conditions with light irradiation, the 1 mmol/L test substance solutions were each irradiated at room temperature with light at 2,000 μW/cm^2 for 1 hour and were then reacted at 25° C. for 23 hours.
(§3) All reactions were performed on the 96-well plate. For each sample, n=3. As comparative controls, reaction solutions to which only the solvents, which are used to dissolve the test substances, were added were also prepared. The reaction solutions were prepared such that the concentrations of NAC and NAL were 5 μmon and the concentration of the test substance was 0.25 mmol/L. After 24 hours, HPLC measurements were made by two detection methods, namely, light absorption detection on a photodiode array (PDA) detector and fluorescence detection on a fluorescence detector. For PDA detection, a trifluoroacetic acid (TFA) aqueous solution was added to the reaction solutions to a final TFA concentration of 0.5% (v/v) before use in the HPLC measurements. For fluorescence detection, each sample was diluted tenfold with a 0.5% (v/v) trifluoroacetic acid (TFA) aqueous solution before use in the HPLC measurements.
(§4) The depletions of the nucleophilic reagents (NAC and NAL) were determined by UV detection at 281 nm or fluorescence detection at an excitation wavelength of 284 nm and a fluorescence wavelength of 333 nm under the HPLC measurement conditions given in “(5) HPLC Measurement” above.
(§5) As the conditions without light irradiation, the liquid mixtures were each reacted with the nucleophilic reagents, namely, NAC and NAL, at 25° C. for 24 hours. As the conditions with light irradiation, the liquid mixtures were each irradiated at room temperature with light at 2,000 μW/cm^2 for 1 hour and were then reacted at 25° C. for 23 hours.
(§6) All reactions were performed on the 96-well plate. For each sample, n=3. Reaction solutions to which only the solvent used for calculation of the depletions of NAC and NAL was added were also prepared. The reaction solutions were prepared such that the concentrations of NAC and NAL were 5 μmon and the concentration of the test substance was 0.5 mmol/L. After 24 hours, HPLC measurements were made by two detection methods, namely, light absorption detection on a photodiode array (PDA) detector and fluorescence detection on a fluorescence detector. For PDA detection, a trifluoroacetic acid (TFA) aqueous solution was added to the reaction solutions to a final TFA concentration of 0.5% (v/v) before use in the HPLC measurements.

[3] = Average score of NAC and NAL depletion and phototoxicity or photoallergy determination, UV detection; details: for Average score (%): under light irradiation, single compound; for Average score (%) without light irradiation / Average score (%) under light irradiation: average of NAC and NAL depletion
Protocol: as §1, §2, §3, §4, §5, §6

[4] = cited from earlier work; remark: listed apart in the source
[5] = NAC depletion under and without ultraviolet irradiation, HPLC with UV detection (281 nm); details: for NAC Depletion (%) without light irradiation: 25° C. 24 hours light-shielded; for NAC Depletion (%) without light irradiation / NAC Depletion (%) under light irradiation: test substance solution 1 mmol/L; for NAC Depletion (%) under light irradiation: 2,000 μW/cm^2 for 1 hour then 25° C. 23 hours
Protocol: (§7) A 1 mmol/L solution of a test substance in water, acetonitrile, acetone, or 5% by mass dimethyl sulfoxide (DMSO)/acetonitrile solution is prepared and used as a test substance solution. A solvent in which the test substance is soluble at a concentration of 1 mmol/L is used. If the test substance is soluble in a plurality of solvents, the solvent is selected in the following order of priority: water, acetonitrile, acetone, and 5% by mass DMSO/acetonitrile.
(§8) Test substance solutions are prepared on a 96-well plate (U96 PP-0.5 ML NATURAL, Thermo (NUNC)), mainly using a 12-channel pipette, and the reagents are added in the following amounts:
(§9) Nucleophilic reagents (NAC and NAL): 150 μL
Test substance solution: 50 μL
(§10) The plate is firmly sealed with a plate seal (resistant embossed seal, Shimadzu GLC Ltd.) and is shaken on a plate shaker (Titramax 100, Heidolph Instruments). After being spun down in a centrifuge, the reaction solutions are irradiated with light at 2,000 μW/cm^2 using an SXL-2500V2 ultraviolet irradiation apparatus (manufactured by SERIC., Ltd.) for 1 hour, followed by incubation at 25° C. in a light-shielded state for 23 hours. As controls without light irradiation, reaction solutions are prepared, followed by incubation at 25° C. in a light-shielded state for 24 hours.
(§11) For measurements using a fluorescence detector, 180 μL of the reaction stop solution (0.5% (v/v) TFA) is dispensed into each well of another plate in advance, and 20 μL of each sample is added so that the sample is diluted 10-fold.
(§12) The depletion of NAC or NAL is calculated from the average (n=3) peak area of unreacted NAC or NAL after the reaction and the average (n=3) peak area of NAC or NAL in a standard solution (no test substance added) by the following equations:
(§13) NAC depletion (% depletion)=[1−(average peak area of unreacted NAC after reaction/average peak area of NAC) in standard solution (no test substance added)]×100
(§14) The average peak area of unreacted NAC after the reaction is the average area calculated from three measurements on unreacted NAC after the reaction. The average peak area of NAC in a standard solution (no test substance added) is the average area calculated from three measurements on NAC in a reaction solution prepared by adding the solvent used for dissolution of the test substance instead of the test substance solution.
as §2, §3

[6] = NAC depletion under and without ultraviolet irradiation, HPLC with fluorescence detection (284 nm excitation, 333 nm fluorescence); details: single compound; for NAC Depletion (%): without light irradiation
Protocol: as §7, §8, §9
Test substance solution: 50 μL
as §10, §11, §12, §13, §14, §2, §3

[7] = NAL depletion under and without ultraviolet irradiation, HPLC with UV detection (281 nm); details: for NAL Depletion (%) without light irradiation: 25° C. 24 hours light-shielded; for NAL Depletion (%) without light irradiation / NAL Depletion (%) under light irradiation: test substance solution 1 mmol/L; for NAL Depletion (%) under light irradiation: 2,000 μW/cm^2 for 1 hour then 25° C. 23 hours
Protocol: as §7, §8, §9
Test substance solution: 50 μL
as §10, §11, §12
(§15) NAL depletion (% depletion)=[1−(average peak area of unreacted NAL after reaction/average peak area of NAL) in standard solution (no test substance added)]×100
(§16) The average peak area of unreacted NAL after the reaction is the average area calculated from three measurements on unreacted NAL after the reaction. The average peak area of NAL in a standard solution (no test substance added) is the average area calculated from three measurements on NAL in a reaction solution prepared by adding the solvent used for dissolution of the test substance instead of the test substance solution.
as §2, §3

[8] = NAL depletion under and without ultraviolet irradiation, HPLC with fluorescence detection (284 nm excitation, 333 nm fluorescence); details: single compound; for NAL Depletion (%): without light irradiation
Protocol: as §7, §8, §9
Test substance solution: 50 μL
as §10, §11, §12, §15, §16, §2, §3

| SMILES | In vivo phototoxicity ([1]; in vivo) | Average score (%) [3] | In vivo photoallergy ([4]; in vivo) | Difference in depletion (under light irradiation - without light irradiation) NAC (%) [5] | NAC Depletion (%) without light irradiation [5] | NAC Depletion (%) under light irradiation [5] | In vivo phototoxicity ([1]; reported in References 1 to 3) | Difference in depletion (under light irradiation - without light irradiation) Average score (%) [2] | Average score (%) ([2]; without light irradiation) | Average score (%) without light irradiation [3] | Difference in depletion (under light irradiation - without light irradiation) NAC (%) [6] | NAC Depletion (%) [6] | NAL Depletion (%) without light irradiation [7] | NAL Depletion (%) under light irradiation [7] | Difference in depletion (under light irradiation - without light irradiation) NAL (%) [8] | NAL Depletion (%) [8] | In vivo photoallergy ([4]; reported in References 1 and 2) | Average score (%) under light irradiation [3] | further results |
| --- | --- | --- | --- | --- | --- | --- | --- | --- | --- | --- | --- | --- | --- | --- | --- | --- | --- | --- | --- |
| CC(O)CO (racemic) [No. 54, Propylene glycol] | Negative | 0.1% | Negative | – | – | – | – | – | – | – | – | – | – | – | – | – | – | – | Average score (%) ([2]; under light irradiation): 0.3% |
| CC(CN1c2ccccc2Sc2ccccc21)N(C)C.Cl (racemic) [compound 14] | – | – | – | 61.9% | 27.6% | 89.5% | Positive | 41.5% | 12.2% | 15.6% | 76.4% | 23.6% | 3.5% | −438.6% | 6.6% | 0.8% | Positive | – | – |
| Cc1ccc(C=C2C(=O)C3(C)CCC2C3(C)C)cc1 (racemic) [compound 39] | – | – | – | 3.6% | 0.7% | 4.3% | Negative | 2.0% | 0.1% | 0.3% | 3.9% | 0.2% | 0.0% | 0.0% | 0.0% | 0.0% | Negative | 2.1% | Difference in depletion (under light irradiation - without light irradiation) Average score (%) [3]: 1.8%; Difference in depletion (under light irradiation - without light irradiation) NAL (%) [7]: 0.0% |
| C[S+](C)[O-] [No. 58, Dimethyl sulfoxide] | Negative | 0.4% | Negative | – | – | – | – | – | – | – | – | – | – | – | – | – | – | – | – |
| [Na+].[O-][n+]1ccccc1[S-] [compound 26] | – | – | – | 89.3% | 10.7% | 100.0% | – | 52.4% | 4.2% | – | 91.6% | 8.4% | −34.1% | 21.9% | 13.3% | 0.0% | Positive | 61.0% | – |
